The values below come from patent publication US20240246908A1 (ORION CORPORATION, priority 2021, published 2024).

For this assay, the system named is YAP-TEAD. The assay is described as follows: TEAD inhibition, Hippo Pathway TEAD Reporter MCF-7 luciferase assay. Particulars: Homo sapiens, MCF7, 24 h, Hippo Pathway TEAD Reporter MCF-7 cells, luciferase activity after 24 h; read-out: IC50 of the test compounds on YAP-TEAD inhibition (Group). It is filed as cell-based. Put shortly: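 MCF-7 cells carrying a TEAD-responsive firefly luciferase reporter, with nuclear YAP1 driving constitutive expression, were treated the day after plating with compounds (11 concentrations, 4 replicates; 0.1% DMSO control). After 24 h, luciferase was read by ONE-Glo luminescence and IC50 determined.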

Consider `COc1ccc(Oc2ccc(F)c(F)c2)cc1NC(=O)C1CCCC(=O)N1C` (stereo not drawn) [Compound 321, N-(5-(3,4-Difluorophenoxy)-2-methoxyphenyl)-1-methyl-6-oxopiperidine-2-carboxamide], for which the IC50 lay within 0.05 to 0.3 µM.
For the compound `COc1ccc(Oc2ccc(Cl)c(F)c2)cc1NC(=O)[C@@H]1CCC(=O)N1C` [Compound 312, (S)—N-(5-(4-Chloro-3-fluorophenoxy)-2-methoxyphenyl)-1-methyl-5-oxo-pyrrolidine-2-carboxamide], the IC50 was below 0.05 µM.
Consider `COc1ccc(Oc2ccc(C(F)(F)F)cc2)cc1NC(=O)[C@@H]1CNC(=O)N1C` [Compound 141, (S)—N-(2-Methoxy-5-(4-(trifluoromethyl)phenoxy)phenyl)-3-methyl-2-oxoimidazolidine-4-carboxamide], for which the IC50 is below 0.05 µM.
As for `O=C1CCC(C(=O)Nc2cc(COc3cccc(F)c3)cc3ccoc23)N1` (stereo not drawn) [Compound 17, N-(5-((3-Fluorophenoxy)methyl)benzofuran-7-yl)-5-oxopyrrolidine-2-carboxamide], the concentration for half-maximal inhibition (IC50) lay within 0.05 to 0.3 µM.
Consider `CN1C(=O)CCC1C(=O)Nc1cc(Oc2ccc(C(F)(F)F)cc2)cc2c1OCC2` (stereo not drawn) [Compound 237, 1-Methyl-5-oxo-N-(5-(4-(trifluoromethyl)phenoxy)-2,3-dihydrobenzofuran-7-yl)pyrrolidine-2-carboxamide], for which the IC50 is below 0.05 µM.
`COc1ccc(OC2CCC(C(F)(F)F)CC2)cc1NC(=O)[C@H]1COC(=O)N1C` (stereo partly drawn) [Compound 208, (R)—N-(2-Methoxy-5-((4-(trifluoromethyl)cyclohexyl)oxy)phenyl)-3-methyl-2-oxooxazolidine-4-carboxamide]: the IC50 was below 0.05 µM.
With `O=C(Nc1cc(Oc2ccc(C(F)(F)F)cc2)cc2c1OCCO2)C1CCC(=O)N1C1CC1` (stereo not drawn) [Compound 114, 1-Cyclopropyl-5-oxo-N-(7-(4-(trifluoromethyl)phenoxy)-2,3-dihydrobenzo[b][1,4]dioxin-5-yl)pyrrolidine-2-carboxamide], the IC50 was below 0.05 µM.
As for `COc1ccc(Oc2cccc(C#N)c2)cc1NC(=O)C1CCC(=O)N1C` (stereo not drawn) [Compound 390, N-(5-(3-Cyanophenoxy)-2-methoxyphenyl)-1-methyl-5-oxopyrrolidine-2-carboxamide], the IC50 fell in the range of 0.301 to 2 µM.
Turning to `COc1ccc(Oc2cccc(Cl)c2)cc1NC(=O)C1CCC(=O)N1C` (stereo not drawn) [Compound 316, N-(5-(3-Chlorophenoxy)-2-methoxyphenyl)-1-methyl-5-oxopyrrolidine-2-carboxamide], the IC50 is below 0.05 µM.
Then `COc1ccc(Oc2ccc(C(F)(F)F)cc2)cc1NC(=O)[C@@H]1C[C@@H](O)CN1` [Compound 370, (2S,4R)-4-Hydroxy-N-(2-methoxy-5-(4-(trifluoromethyl)phenoxy)phenyl)pyrrolidine-2-carboxamide], with 0.301 to 2 µM; and `COc1ccc(Oc2ccc(C(F)(F)F)cn2)cc1NC(=O)[C@@H]1CN(C)C(=O)N1C` [Compound 346, (S)—N-(2-Methoxy-5-((5-(trifluoromethyl)pyridin-2-yl)oxy)phenyl)-1,3-dimethyl-2-oxoimidazolidine-4-carboxamide], with 0.05 to 0.3 µM; and `CN1C(=O)CCC1C(=O)Nc1cc(Oc2ccc(C(F)(F)F)cc2)ccc1C#N` (stereo not drawn) [Compound 367, N-(2-Cyano-5-(4-(trifluoromethyl)phenoxy)phenyl)-1-methyl-5-oxopyrrolidine-2-carboxamide], with 0.301 to 2 µM.
For the compound `CN1C(=O)CCC1C(=O)Nc1cc(Oc2ccc(C(F)(F)F)cc2)ccc1F` (stereo not drawn) [Compound 75, N-(2-Fluoro-5-(4-(trifluoromethyl)phenoxy)phenyl)-1-methyl-5-oxopyrrolidine-2-carboxamide], the IC50 was below 0.05 µM.
For the compound `COc1ccc(Oc2ccc(C(F)(F)F)cc2)cc1NC(=O)[C@@]1(C)CCC(=O)N1C` [Compound 134, (R)—N-(2-methoxy-5-(4-(trifluoromethyl)phenoxy)phenyl)-1,2-dimethyl-5-oxopyrrolidine-2-carboxamide], the half-inhibitory concentration (IC50) was below 0.05 µM.
Turning to `COc1ccc(Oc2ccc(OC(F)(F)F)cn2)cc1NC(=O)C1COC(=O)N1C` (stereo not drawn) [Compound 112, N-(2-Methoxy-5-((5-(trifluoromethoxy)pyridin-2-yl)oxy)phenyl)-3-methyl-2-oxooxazolidine-4-carboxamide], the IC50 was in the range of 0.05 to 0.3 µM.
For the compound `COc1ccc(Oc2ccc(F)c(F)c2)cc1NC(=O)C1CCC(=O)N1` (stereo not drawn) [Compound 59, N-(5-(3,4-Difluorophenoxy)-2-methoxyphenyl)-5-oxopyrrolidine-2-carboxamide], the IC50 was below 0.05 µM.
Turning to `O=C1CC(C(=O)Nc2cc(Oc3ccc(C(F)(F)F)cc3)cc3c2OCC3)CCN1` (stereo not drawn) [Compound 187, 2-Oxo-N-(5-(4-(trifluoromethyl)phenoxy)-2,3-dihydrobenzofuran-7-yl)-piperidine-4-carboxamide], the half-maximal inhibitory concentration (IC50) is below 0.05 µM.
Then `CN1C(=O)NC[C@H]1C(=O)Nc1cc(F)cc(Oc2ccc(C(F)(F)F)cn2)c1` [Compound 362, (S)—N-(3-Fluoro-5-((5-(trifluoromethyl)pyridin-2-yl)oxy)phenyl)-3-methyl-2-oxoimidazolidine-4-carboxamide], with below 0.05 µM; and `COc1ccc(Oc2ccc(C(F)(F)F)cc2)cc1NC(=O)[C@@H]1CNC(=O)C1` [Compound 355, (S)—N-(2-Methoxy-5-(4-(trifluoromethyl)phenoxy)phenyl)-5-oxopyrrolidine-3-carboxamide], with below 0.05 µM; and `COc1ccc(Oc2ccc(OC(F)(F)F)cc2)cc1NC(=O)[C@H]1CCC(=O)N1C` [Compound 290, (R)—N-(2-methoxy-5-(4-(trifluoromethoxy)phenoxy)phenyl)-1-methyl-5-oxopyrrolidine-2-carboxamide], with below 0.05 µM.
For `CN1C(=O)NC[C@H]1C(=O)Nc1cc(/C=C/C2CCC(F)(F)CC2)cc2c1OCO2` [Compound 409], the concentration for half-maximal inhibition (IC50) is below 0.05 µM.
Under `CN1C(=O)CC[C@H]1C(=O)Nc1cc(Oc2ccc(C(F)(F)F)cn2)cc2c1OCCC2` [Compound 174, (S)-1-Methyl-5-oxo-N-(6-((5-(trifluoromethyl)pyridin-2-yl)oxy)chroman-8-yl)pyrrolidine-2-carboxamide] stands 0.05 to 0.3 µM; under `COc1ccc(Oc2ccc(F)c(F)c2)cc1NC(=O)C1CCC(=O)N1C` (stereo not drawn) [Compound 60, N-(5-(3,4-Difluorophenoxy)-2-methoxyphenyl)-1-methyl-5-oxopyrrolidine-2-carboxamide], 0.05 to 0.3 µM.
Under `COc1ccc(/C=C/C2CCC(F)(F)CC2)cc1NC(=O)C1CCC(=O)N1C` (stereo not drawn) [Compound 22, (E)-N-(5-(2-(4,4-Difluorocyclohexyl)vinyl)-2-methoxyphenyl)-1-methyl-5-oxo-pyrrolidine-2-carboxamide] stands below 0.05 µM.
Then `COc1ccc(Oc2ccc(C(F)(F)F)cn2)cc1NC(=O)[C@H]1CCC(=O)N1C1CC1` [Compound 128, (R)-1-Cyclopropyl-N-(2-methoxy-5-((5-(trifluoromethyl)pyridin-2-yl)oxy)-phenyl)-5-oxopyrrolidine-2-carboxamide], with below 0.05 µM; and `COc1ccc(Oc2ccc(C(F)(F)F)cc2)cc1NC(=O)C1CCCC(=O)N1C` (stereo not drawn) [Compound 320, N-(2-Methoxy-5-(4-(trifluoromethyl)phenoxy)phenyl)-1-methyl-6-oxo-piperidine-2-carboxamide], with below 0.05 µM; and `COc1ccc(Oc2cccc(C(F)(F)F)c2)cc1NC(=O)C12CCC(=O)N1CCS2` (stereo not drawn) [Compound 19, N-(2-Methoxy-5-(3-(trifluoromethyl)phenoxy)phenyl)-5-oxotetrahydropyrrolo[2,1-b]thiazole-7a(5H)-carboxamide], with 0.05 to 0.3 µM.
Consider `CN1C(=O)CCC1C(=O)Nc1cc(Oc2ccc(F)cc2)cc2c1OCCO2` (stereo not drawn) [Compound 241, N-(7-(4-Fluorophenoxy)-2,3-dihydrobenzo[b][1,4]dioxin-5-yl)-1-methyl-5-oxo-pyrrolidine-2-carboxamide], for which the IC50 was 0.05 to 0.3 µM.
On to `COc1ccc(Oc2ccc(C(F)(F)F)c(F)n2)cc1NC(=O)[C@H]1CCC(=O)N1C` [Compound 402, (R)—N-(5-((6-Fluoro-5-(trifluoromethyl)pyridin-2-yl)oxy)-2-methoxyphenyl)-1-methyl-5-oxopyrrolidine-2-carboxamide], for which the IC50 was below 0.05 µM.
In the case of `CN1C(=O)CCC1C(=O)Nc1cc(Oc2cccc(C(F)(F)F)c2)cc2ccoc12` (stereo not drawn) [Compound 28, 1-Methyl-5-oxo-N-(5-(3-(trifluoromethyl)phenoxy)benzofuran-7-yl)pyrrolidine-2-carboxamide], the IC50 is below 0.05 µM.
As to `COc1ccc(Oc2cccc(OC(F)(F)F)c2)cc1NC(=O)C1CCC(=O)N1C` (stereo not drawn) [Compound 291, N-(2-methoxy-5-(3-(trifluoromethoxy)phenoxy)phenyl)-1-methyl-5-oxo-pyrrolidine-2-carboxamide], the IC50 is 0.05 to 0.3 µM.
As to `CN1C(=O)CC[C@H]1C(=O)Nc1cc(/C=C/C2CCC(F)(F)CC2)cc2c1OCC2` [Compound 406, (S,E)-N-(5-(2-(4,4-Difluorocyclohexyl)vinyl)-2,3-dihydrobenzofuran-7-yl)-1-methyl-5-oxopyrrolidine-2-carboxamide], the half-inhibitory concentration (IC50) was below 0.05 µM.
As for `CN1C(=O)CCC1C(=O)Nc1cc(OCc2ccc(F)c(F)c2)cc2c1OCC2` (stereo not drawn) [Compound 248, N-(5-((3,4-Difluorobenzyl)oxy)-2,3-dihydrobenzofuran-7-yl)-1-methyl-5-oxopyrrolidine-2-carboxamide], the IC50 was below 0.05 µM.
As for `CN1C(=O)CCC1C(=O)Nc1cc(Oc2ccc(C(F)(F)F)cc2)cc2c1OCCO2` (stereo not drawn) [Compound 67, 1-Methyl-5-oxo-N-(7-(4-(trifluoromethyl)phenoxy)-2,3-dihydrobenzo[b][1,4]-dioxin-5-yl)pyrrolidine-2-carboxamide], the IC50 is below 0.05 µM.
As to `COc1ccc(Oc2ccc(C(F)(F)F)cc2)cc1NC(=O)C1CCC(=O)N1C(=O)C1CCC(=O)N1C` (stereo not drawn) [Compound 230, N-(2-Methoxy-5-(4-(trifluoromethyl)phenoxy)phenyl)-1-(1-methyl-5-oxo-pyrrolidine-2-carbonyl)-5-oxopyrrolidine-2-carboxamide], the IC50 is below 0.05 µM.
As to `COc1ccc(/C=C/C2CCC(F)(F)CC2)cc1NC(=O)[C@@H]1CCC(=O)N1C` [Compound 24], the IC50 fell in the range of 0.05 to 0.3 µM.
